From ChEMBL document CHEMBL4680139, “Antiproliferative activity of diarylnaphthylpyrrolidine derivative via dual target inhibition” (Eur J Med Chem, 2020)
≈ marks a conversion by molar mass, not a printed value.

Key:
MCF7 [1] = assay: Antiproliferative activity against human MCF-7 cells assessed as inhibition of cell growth measured after 48 hrs by SRB assay; assay type: functional, cell-based; conditions: MCF7, 48 h
MDA-MB-231 = assay: Antiproliferative activity against human MDA-MB-231 cells assessed as inhibition of cell growth measured after 48 hrs by SRB assay; assay type: functional, cell-based; conditions: MDA-MB-231, 48 h, read-out: IC50
HCT-116 = assay: Antiproliferative activity against human HCT-116 cells assessed as inhibition of cell growth measured after 48 hrs by SRB assay; assay type: functional, cell-based; conditions: HCT-116, 48 h
A549 = assay: Antiproliferative activity against human A549 cells assessed as inhibition of cell growth measured after 48 hrs by SRB assay; assay type: functional, cell-based; conditions: A549, 48 h
THP-1 = assay: Antiproliferative activity against human THP-1 cells assessed as inhibition of cell growth measured after 48 hrs by SRB assay; assay type: functional, cell-based; conditions: THP-1, 48 h
[2] = Inhibition of bovine brain tubulin polymerisation measured by turbidometric method; assay type: tissue-based, Bos taurus
[3] = molecular target: DNA topoisomerase 2-alpha (Homo sapiens) (UniProt P11388); assay: Inhibition of DNA-topoisomerase 2 in human MCF7 cells using kinetoplast DNA as substrate at 120 uM measured by ELISA; assay type: cell-based
MCF7 [4] = assay: Antiproliferative activity against human MCF-7 cells assessed as inhibition of colony formation measured after 3 weeks by crystal violet staining based soft agar colony formation assay; assay type: functional, cell-based; conditions: MCF7, 504 h

DNA topoisomerase 2-alpha (Homo sapiens), sequence (P11388 whole entry): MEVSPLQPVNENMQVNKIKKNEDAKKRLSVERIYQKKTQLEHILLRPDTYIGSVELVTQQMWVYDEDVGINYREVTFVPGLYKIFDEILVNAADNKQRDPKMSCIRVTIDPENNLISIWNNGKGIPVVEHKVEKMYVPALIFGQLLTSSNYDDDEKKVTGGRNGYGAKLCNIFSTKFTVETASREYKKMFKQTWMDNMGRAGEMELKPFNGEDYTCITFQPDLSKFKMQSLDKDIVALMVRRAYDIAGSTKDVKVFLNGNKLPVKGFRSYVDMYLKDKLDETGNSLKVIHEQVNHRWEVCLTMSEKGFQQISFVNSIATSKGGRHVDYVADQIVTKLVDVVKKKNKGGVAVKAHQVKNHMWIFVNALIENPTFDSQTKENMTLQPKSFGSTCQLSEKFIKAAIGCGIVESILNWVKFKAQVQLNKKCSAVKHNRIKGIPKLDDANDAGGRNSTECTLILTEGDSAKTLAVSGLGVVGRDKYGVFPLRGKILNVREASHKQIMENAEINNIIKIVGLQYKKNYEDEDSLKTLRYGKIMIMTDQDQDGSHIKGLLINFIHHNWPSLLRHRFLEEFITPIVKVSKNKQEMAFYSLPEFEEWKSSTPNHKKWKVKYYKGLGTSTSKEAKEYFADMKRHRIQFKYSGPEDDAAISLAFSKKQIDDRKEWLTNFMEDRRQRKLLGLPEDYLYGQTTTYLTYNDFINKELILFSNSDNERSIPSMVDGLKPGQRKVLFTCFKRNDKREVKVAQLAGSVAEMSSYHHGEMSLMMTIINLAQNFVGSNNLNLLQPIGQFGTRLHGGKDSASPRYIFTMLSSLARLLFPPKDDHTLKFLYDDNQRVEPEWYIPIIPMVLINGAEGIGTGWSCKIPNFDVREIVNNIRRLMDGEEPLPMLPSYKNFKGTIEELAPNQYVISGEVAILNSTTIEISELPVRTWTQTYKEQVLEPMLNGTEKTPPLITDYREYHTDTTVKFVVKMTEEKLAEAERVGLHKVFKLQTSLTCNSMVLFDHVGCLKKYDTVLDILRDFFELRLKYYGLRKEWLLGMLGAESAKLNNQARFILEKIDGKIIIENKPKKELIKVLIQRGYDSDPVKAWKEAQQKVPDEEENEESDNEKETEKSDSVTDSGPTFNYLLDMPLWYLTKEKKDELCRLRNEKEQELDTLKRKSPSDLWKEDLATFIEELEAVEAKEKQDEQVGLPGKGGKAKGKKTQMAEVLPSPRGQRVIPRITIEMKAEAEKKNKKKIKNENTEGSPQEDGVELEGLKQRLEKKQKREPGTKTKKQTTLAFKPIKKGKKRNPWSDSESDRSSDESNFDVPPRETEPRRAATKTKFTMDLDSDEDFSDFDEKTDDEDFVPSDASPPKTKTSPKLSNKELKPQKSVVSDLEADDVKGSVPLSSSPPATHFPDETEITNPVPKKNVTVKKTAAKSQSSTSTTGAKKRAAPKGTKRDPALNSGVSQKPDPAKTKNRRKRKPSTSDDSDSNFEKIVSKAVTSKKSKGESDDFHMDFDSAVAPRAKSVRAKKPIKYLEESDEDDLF

Row | SMILES | IC50 (MCF7 [1]) [µM] | IC50 (MDA-MB-231) [µM] | IC50 (HCT-116) [µM] | IC50 (A549) [µM] | IC50 (THP-1) [µM] | IC50 [2] [µM] | inhibition [3] [%] | IC50 (MCF7 [4]) [µg/mL]
1 | COc1ccc(C(c2ccc(OC(C)CN(C)C)cc2)c2cccc3ccccc23)c(OC)c1OC (stereo not given) | 13.1 | 4.34 | 8.41 | 11.4 | 15 | – | – | –
2 | COc1ccc(/C(=C/c2ccc(F)cc2)c2cccc3ccccc23)c(OC)c1OC | 10.5 | > 20 | > 20 | 18.6 | 18.9 | – | – | –
3 | CCOC(=O)CCO/N=C(/c1ccc(OC)c(OC)c1OC)c1cccc2ccccc12 | > 20 | 15.2 | 10 | 19.6 | > 20 | – | – | –
4 | C=C(c1ccc(OC)c(OC)c1OC)c1cccc2ccccc12 | 11.7 | 4.66 | > 20 | 19.8 | 12.5 | 9.03 | – | –
5 | COc1ccc(C(O)(Cc2ccc(F)cc2)c2cccc3ccccc23)c(OC)c1OC (stereo not given) | 7.56 | 5.44 | > 20 | 5.94 | 5.86 | – | – | –
6 | COc1ccc(C(c2ccccc2OCCN2CCCCC2)c2cccc3ccccc23)c(OC)c1OC (stereo not given) | 12.4 | 7.18 | 4.63 | 9.86 | 19.1 | – | – | –
7 | CCOC(=O)/C=C/CO/N=C(/c1ccc(OC)c(OC)c1OC)c1cccc2ccccc12 | > 20 | > 20 | > 20 | 14 | > 20 | – | – | –
8 | COc1ccc(C(c2ccccc2O)c2cccc3ccccc23)c(OC)c1OC (stereo not given) | 16.6 | 17.7 | > 20 | 13.6 | > 20 | – | – | –
9 | COC(=O)c1ccc(COC(c2ccc(OC)c(OC)c2OC)c2cccc3ccccc23)cc1 (stereo not given) | > 20 | > 20 | > 20 | 12 | > 20 | – | – | –
10 | COc1ccc(/C(=C\c2ccc(F)cc2)c2cccc3ccccc23)c(OC)c1OC | 17.7 | 16.2 | > 20 | > 20 | 9.08 | – | – | –
11 | COc1ccc(C(c2ccc(OCCN3CCCCC3)cc2)c2cccc3ccccc23)c(OC)c1OC (stereo not given) | 15.4 | 15.2 | 11.9 | 15 | 16.6 | – | – | –
12 | COc1ccc(C(O)(Cc2ccc(C)cc2)c2cccc3ccccc23)c(OC)c1OC (stereo not given) | > 20 | > 20 | > 20 | 18.7 | > 20 | – | – | –
13 | COc1ccc(C(c2ccc(O)cc2)c2cccc3ccccc23)c(OC)c1OC (stereo not given) | 17.5 | 17.4 | 16 | 16.4 | 9.45 | – | – | –
14 | COc1ccc(C(OCc2ccc(C)cc2)c2cccc3ccccc23)c(OC)c1OC (stereo not given) | 10.7 | > 20 | > 20 | 15.7 | > 20 | – | – | –
15 | COc1ccc(C(O)(Cc2ccccc2)c2cccc3ccccc23)c(OC)c1OC (stereo not given) | 10.6 | 4.78 | > 20 | > 20 | 12.4 | 6.02 | – | –
16 | COc1ccc(C(c2ccc(OCCN3CCCC3)cc2)c2cccc3ccccc23)c(OC)c1OC (stereo not given) | 15.3 | 14.4 | 10.8 | 15.8 | 5.4 | – | – | –
17 | COc1ccc(C(c2ccc(OCCO)cc2)c2cccc3ccccc23)c(OC)c1OC (stereo not given) | > 20 | > 20 | > 20 | > 20 | 16.6 | – | – | –

Row | SMILES | IC50 (MCF7 [1]) [µM] | IC50 (MDA-MB-231) [µM] | IC50 (HCT-116) [µM] | IC50 (A549) [µM] | IC50 (THP-1) [µM] | IC50 [2] [µM] | inhibition [3] [%] | IC50 (MCF7 [4]) [µg/mL]
18 | COc1cc(COC(c2ccc(OC)c(OC)c2OC)c2cccc3ccccc23)cc(OC)c1 (stereo not given) | > 20 | > 20 | > 20 | 17.5 | > 20 | – | – | –
19 | COc1ccc(/C(=N/OCC(=O)O)c2cccc3ccccc23)c(OC)c1OC | > 20 | > 20 | 4.98 | 17.2 | > 20 | – | – | –
20 | COc1ccc(/C(=N/OC(C)=O)c2cccc3ccccc23)c(OC)c1OC | > 20 | 17 | 4.98 | 17.2 | > 20 | – | – | –
21 | C=CCC(O)(c1ccc(OC)c(OC)c1OC)c1cccc2ccccc12 (stereo not given) | > 20 | > 20 | > 20 | 10.7 | > 20 | – | – | –
22 | COc1ccc(C(c2ccc(OCC(=O)O)cc2)c2cccc3ccccc23)c(OC)c1OC (stereo not given) | > 20 | > 20 | 5.02 | 16.4 | > 20 | – | – | –
23 | CCOC(=O)CO/N=C(/c1ccc(OC)c(OC)c1OC)c1cccc2ccccc12 | > 20 | 16.4 | 3.36 | 6.72 | > 20 | – | – | –
24 | C=CCOC(c1ccc(OC)c(OC)c1OC)c1cccc2ccccc12 (stereo not given) | > 20 | > 20 | > 20 | 9.71 | > 20 | – | – | –
25 | COc1ccc(C(OCCN(C)C)c2cccc3ccccc23)c(OC)c1OC (stereo not given) | 11.1 | > 20 | > 20 | 17.9 | > 20 | – | – | –
26 | COc1ccc(/C(=N/O)c2cccc3ccccc23)c(OC)c1OC | > 20 | 2.5 | 5.88 | 13.1 | > 20 | 5.58 | – | –
27 | COc1ccc(C(OCc2ccccc2)c2cccc3ccccc23)c(OC)c1OC (stereo not given) | 14.1 | > 20 | > 20 | 13.5 | > 20 | – | – | –
28 | COc1cc([C@@H]2c3cc4c(cc3[C@H](O)[C@H]3COC(=O)[C@H]23)OCO4)cc(OC)c1OC [PODOFILOX] | 10.9 | 5.73 | > 20 | 7.34 | 19.6 | 0.72 | 26.9 | –
29 | CCOC(=O)C(C)C(O)(c1ccc(OC)c(OC)c1OC)c1cccc2ccccc12 (stereo not given) | > 20 | > 20 | > 20 | 4 | > 20 | – | – | –
30 | COc1ccc(/C(=C/c2ccc(C)cc2)c2cccc3ccccc23)c(OC)c1OC | > 20 | 8.31 | > 20 | 19.6 | > 20 | – | – | –
31 | CC/C(=C(\c1ccccc1)c1ccc(OCCN(C)C)cc1)c1ccccc1 [TAMOXIFEN] | – | > 20 | 45 | 10.1 | 11.9 | – | – | 1.31 (≈ 3.53 µM)
32 | COc1ccc(C(c2ccc(OCCN(C)C)cc2)c2cccc3ccccc23)c(OC)c1OC (stereo not given) | 15.2 | 14.3 | 3.3 | 10.2 | 7.95 | – | – | –
33 | COc1ccc(C(O)(C/C=C\c2ccccc2)c2cccc3ccccc23)c(OC)c1OC (stereo not given) | 10.2 | 12.8 | > 20 | 17.6 | 19.4 | – | – | –
34 | CCN(CC)CCOc1ccc(C(c2ccc(OC)c(OC)c2OC)c2cccc3ccccc23)cc1 (stereo not given) | 15.5 | 15.6 | 8.34 | 11.5 | 13.9 | – | – | –
